# Entries after “also recorded” stand apart in the source; their conditions may differ. No end group written: not given here.
# Columns and labels:
# [1] = test system: human basophils loaded with serum from a patient allergic to ragweed pollen; assay: Human basophil degranulation test (Basotest); assay type: cell-based
# Method: BasotestR (ORPEGEN Pharma Heidelberg, Germany) was used for the quantitative determination of in vitro basophile degranulation. Heparinized blood (100 μl) from a non-allergic donor (ACT) was first incubated with serum (25 μl) from a patient allergic to ragweed pollen (FB) for 2 hours. The mix was further stimulated with buffer (reagent B) for 10 min at 37° C., and then with or without chemotactic peptide formylmethionylleucylphenylalanine (fMLP) as positive and negative controls respectively. Aliquots of blood were incubated in parallel with 100 μl allergen solution diluted in a saline solution for 20 min at 37° C. A dose response curve was performed with 250-12.5-0.625-0.031 nano-molar nAmb a 1 (added concentration) as well as starting 10 fold higher with AllerR mixed Sets (AllerR1-R6 and AllerR7-11). The activation process was stopped by incubating the blood samples at 4° C. for 5 min. The samples were then incubated for 20 min at +4° C.) (dark condition with 20 μl of phycoerythrin (PE)-conjugated anti-IgE and fluorescein isothyocyanate (FITC)-conjugated anti-gp53 (CD63). […] Cells were washed twice with PBS solution and resuspended in 200 μl of PBS solution and analyzed within 2 h by flow cytometry (FASC-LSRII-Becton Dickinson). The basophile population was gated on the PE anti-IgE positive cells and the expression of gp53 (CD63) was analyzed on this population. […]
# [2] = test system: Amb a 1 specific IgE in serum of subjects allergic to ragweed pollen; assay: Competition ELISA for IgE binding on nAmb a 1 coated plates; set-up: species or system human
# Method: Recombinant Amb a 1 at 0.5 μg/ml (purified nAmb a 1 obtained from Protein Labs, San Diego) was coated overnight on 96-well Nunc Maxisorp® immunoplates (Life Technologies, Basel, Switzerland). After blocking with 1% BSA, either ten-fold, twenty-fold, thirty-fold or forty-fold dilutions of patient serum were added depending on specific IgE content. […] The sera of three allergic patients were selected for high IgE level and clear signal over background and used to test for competition with the peptides. Serial dilutions of each set of COPs, namely Set A; Set B and Set C, at indicted concentrations were pre-incubated with the three selected sera overnight at 4° C. Sera were then incubated on nAmb a 1 coated 96-well plates and residual IgE binding was determined as described above. nAmb a 1 dilutions were used as control for inhibition, whereas BSA was used as control for possible non-specific inhibition.
# [3] = Solubility characteristics of COPs
# Method: (§1) Peptides were resuspended either in water at 2 mg/ml or at 10 to 20 mg per ml in DMSO as indicated and frozen in aliquots.
# [4] = pH 7
# Method: as §1
# [5] = test system: Balb/c mice sensitized with nAmb a 1; assay: Anaphylactic response in sensitized mice (sensitization and challenge); assay type: in vivo
# Method: Balb/c mice were sensitized by repeated injections of low doses (1 ug) of the allergen Amb a 1 by 5 subcutaneous injections at 14 days interval. […] Anaphylactic symptoms were scored using a scale of 6 grades (0, no symptoms to 5, death) adapted from Sade et al. J Investig Allergol Clin Immunol; 17(6): 379-385 (2007). Rectal temperature was monitored at 15 minutes intervals for 60 minutes after challenge using a digital thermometer. Citrate buffer was used as control for sensitization and challenge leading to two additional mice groups.
# [6] = test system: Rat Basophilic Leukemia cells (RBL-30/25) expressing human IgE receptor, pre-loaded with sera from allergic patients; assay: RBL cell degranulation (beta-hexosaminidase release); assay type: cell-based; conditions: sera from panel of allergic patients (21 sera); FIG. 3
# Method: Alternatively, degranulation was monitored using Rat Basophilic Leukemia cells (RBL) expressing parts of the human IgE receptor pre-loaded with sera from allergic patients (Vogel et al, Allergy 60: 1021-1028 (2005)). Essentially, RBL-30/25 cells were pre-incubated overnight with sera from patients from the region around Lyon (France, Biomnis) as well as from US (Plasma Lab International). To increase and stabilize the secretion of beta-hexosaminidase, 50% D2O was added to the Tyrode's buffer used for the assay. beta-hexosaminidase release after IgE crosslinking with an anti-IgE antibody was set to 100% release reflecting the ability of the cells to release beta-hexosaminidase upon IgE crosslinking. Amb a 1-specific release is given as percent of IgE mediated release.
molecule,measurement,setting,value
AGSDGDAISISGSSQIWIDHCSLSKSVDGLVDAKLGTTRLTVSNSLFTQHQFVLLFGAGDENIEDRGMLATVAFNTFTDN [AllerR4],IgE binding (in words),[1]; as seen in degranulation assays,did not bind IgE
same,IgE binding (in words),[2]; as seen in competition ELISA,did not bind IgE
DVANPKEGTLRFGAAQNRPLWIIFERDMVIRLDKEMVVNSDKTIDGRGAKVE [AllerR2],solubility,[3]; water,2000 µg/mL
FVLLFGAGDENIEDRGMLATVAFNTFTDNVDQRMPRCRHGFFQVVNNNYDKWGSYAIGGSASPTILSQGNRFCAPDERS [AllerR10],Conc. (solubility),[4],2000 µg/mL
TIDGRGAKVEIINAGFTLNGVKNVIIHNINMHDVKVNPGGLIK [AllerR3],solubility,[3]; water,2000 µg/mL
TSGAYNIIDGCWRGKADWAENRKALADCAQGFGKGTVGGKDGDIYTVTSELDDDVANPK (cysteines drawn unpaired) [AllerR1],solubility,[3]; water,2000 µg/mL
VDAKLGTTRLTVSNSLFTQHQFVLLFGAGDENIEDRGMLATVAFNTFTDN [AllerR4.2],solubility,"[3]; 5 mM HCl, 0.1 M NaOH and 0.1 M citrate buffer pH 5.6, pH 5.6",1000 µg/mL
same,Solubility (in words),[3]; solvent as stated in the value,not soluble in H2O
nAmb a 1: ragweed pollen major allergen purified from ragweed pollen by Protein Labs; positive control (protein) AEDLQEILPVNETRRLTTSGAYNIIDGCWRGKADWAENRKALADCAQGFGKGTVGGKDGDIYTVTSELDDDVANPKEGTLRFGAAQNRPLWIIFERDMVIRLDKEMVVNSDKTIDGRGAKVEIINAGFTLNGVKNVIIHNINMHDVKVNPGGLIKSNDGPAAPRAGSDGDAISISGSSQIWIDHCSLSKSVDGLVDAKLGTTRLTVSNSLFTQHQFVLLFGAGDENIEDRGMLATVAFNTFTDNVDQRMPRCRHGFFQVVNNNYDKWGSYAIGGSASPTILSQGNRFCAPDERSKKNVLGRHGEAAAESMKWNWRTNKDVLENGAIFVASGVDPVLTPEQSAGMIPAEPGESALSLTSSAGVLSCQPGAPC,Anaphylactic symptom scores (scale 0 to 5),"[5]; challenge 7 days after last sensitizing injection, Amb a 1 30 μg/ml or AllerR 34 μg/ml, observed one hour, FIG. 5 panel A",significant increase in symptom scores already after 15 min
same,Rectal (body) temperature after challenge,"[5]; measured every 15 min, FIG. 5 panel B",marked decrease in rectal temperature
same,"IgE mean levels, increase over pre-immune following sensitization","[5]; mice sensitized by repeated s.c. injections of nAmb a 1, FIG. 5 panel C",about 500 fold
same,"Basophil degranulation (CD63 expression), in words","[1]; human basophils loaded with serum FB, FIG. 2",induce human basophil degranulation
same,"Degranulation of RBL cells, in words",[6],triggered degranulation to various extents; also recorded: triggered degranulation to various extend
same,Concentration range showing competition,"[2]; panel of sera from 22 patients allergic to ragweed, data not shown",10^−11 to 10^−8 molar
same,Concentrations at which competition with serum IgE occurs,"[2]; sera from three allergic patients (17794, 18342, FB), FIG. 1",10^−11 to 10^−8 M
